In patent US8846949B2, “Pyrrolopyrazoles as N-type calcium channel blockers” (Janssen Pharmaceutica NV, priority 2012, dated 2014) one finds inhibition and IC50 data, which are given here for 16 compounds.

One may read the inhibition as the relative decrease from the control value, in per cent. The term IC50 denotes the point on the concentration scale where inhibition reaches its midpoint.

Molecules are shown by their SMILES. Like-named read-outs stand apart in the source and are kept apart here.

One assay deals with T1, N-type calcium channel (Homo sapiens, UniProt Q00975).
T1 construct: expressed in transfected cells
Nature of the assay: Automated electrophysiology assay (QPatch-HT whole-cell patch clamp). In kind it is cell-based. On the procedure:
Cells were grown in T175 flasks to 50%-90% confluence. At the time of use, cells were enzymatically treated with Detachin (Genlantis, San Diego, Calif. USA), centrifuged, rinsed, and resuspended in 293 SFM II media (Life Technologies, Grand Island, N.Y. U.S.A.) supplemented with 25 mM HEPES (Sigma-Aldrich, St. Louis, Mo. U.S.A.) to a concentration of 2-3×10^6 cells/mL. Cells were added to the automated cell preparation station on the QPatch-HT (Sophion Biosciences, North Brunswick, N.J. U.S.A.), and following a 10- to 30-min recovery period with gentle stirring, the assay protocol was initiated. During the automated cell preparation, cells were collected, centrifuged and resuspended in an extracellular (EC) solution containing 132 mM NaCl, 1.8 mM CaCl2, 5.4 mM KCl, 0.8 mM MgCl2, 10 mM glucose, and 10 mM HEPES (pH=7.4), adjusted with sucrose to approximately 315 m0sm. The QPlate was primed with an intracellular solution containing 135 mM CsCl, 10 mM EGTA, 4 MgATP, 0.3 NaGTP, and 20 mM HEPES (pH=7.2), adjusted to approximately 290 m0sm with deionized water and the EC solution. Cells were added to the prepared QPlate wells by robotic pipettes of the QPatch-HT.
For cells determined to be in stable whole-cell patch clamp, the EC solution was replaced with a barium (Ba)/triethylammonium (TEA) solution containing 140 mM TEA-Cl, 10 mM BaCl2, 0.8 mM MgCl2, 10 mM glucose and 10 mM HEPES (pH=7.4). High (40 mM) BaCl2 concentrations were made with adjustments to TEA-C1 (90 mM) to maintain the osmolarity. From a resting potential of −80 mV, a train of depolarizing pulses (15 pulses at 5 Hz, +20 mV) was delivered to the cell once every 30 sec for eight trains (4 min total), and the resulting currents were measured during a control period (no compound). This protocol was repeated for each subsequent addition of control buffer with or without compound (three periods total, each with four trains). The current generated in the 1st and 15th pulses of the last train of each period in the presence of each drug concentration was normalized to the current generated during the control period at the respective pulses (representing low- and high-frequency stimulation, respectively). Data from both the second and third drug application periods were analyzed for each cell. A final addition of Ba/TEA solution containing 60-100 μM CdCl2 was made to block all N-type current and to “zero” the currents for each cell. All buffer/compound additions were made using a “spitting” feature of the QPatch-HT, which added three repetitions of 5 μL solution at the beginning of each recording period.
To examine closed-state inactivation, cells were subjected to a channel-activating 50-msec depolarizing step pulse from −80 to +10 mV, followed by a 5-sec nonactivating step to voltages ranging from −130 to −60 mV in 10 mV increments and then a 50-ms step from −80 to +10 mV to assess the remaining current. Currents from the activating voltage pulse were normalized to the peak value of the test pulse following the −130 mV step and fit to a Boltzman equation to obtain the V1/2. Roscovitine (Sigma-Aldrich) was prepared as a 100 mM stock in dimethyl sulfoxide and diluted to the indicated working concentrations. […]. Compounds of Formula (I) were diluted first into dimethyl sulfoxide and then into 10% pluronic F-127 in water (Life Technologies), sonicated for 1 min and diluted into EC buffer. Vehicle controls were run in parallel in all experiments.
Unless otherwise indicated, statistics for comparing among electrophysiological results utilized a one-way analysis of variance with Fisher's least squares determination test for pair-wise comparison.
Background: Patch clamp records ionic current or voltage across a cell membrane.

Assay [1] addresses T2, N-type calcium channel α1B (Cav2.2), β3 and α2δ subunits (Homo sapiens, UniProt Q00975).
T2 construct: expressed in transfected cells
Briefly: Functional assay, antagonism of N-type calcium channel (FDSS calcium mobilization response to KCl depolarization). In kind it is cell-based. To be noted: for inhibition at 0.33 µM: 0.33 μM compound, FDSS, 50 mM KCl; for IC50: HEK stable cell line, 50 mM KCl depolarization, six-point concentration-response. Put shortly:
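HEK cells stably co-expressing α1B (Cav2.2), β3 and α2δ subunits were loaded with calcium dye, preincubated with compound for 5 min, then depolarized with 50 mM KCl and read for 3 min by FDSS fluorescence. IC50 from six-point curves, normalized to KCl maximum and buffer minimum.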

Setting [2] is: high frequency (15th pulse of train, 5 Hz), read-out: QPatch at High Frequency % Inhibition.
Setting [3] is: low frequency (1st pulse of train), read-out: QPatch at Low Frequency % Inhibition.
The mark [4] stands for this setting: 1 μM, high frequency (15th pulse of train, 5 Hz), read-out: QPatch at High Frequency % Inhibition.
Where [5] appears, read: 1 μM, low frequency (1st pulse of train), read-out: QPatch at Low Frequency % Inhibition.

T1 sequence (Q00975 whole entry): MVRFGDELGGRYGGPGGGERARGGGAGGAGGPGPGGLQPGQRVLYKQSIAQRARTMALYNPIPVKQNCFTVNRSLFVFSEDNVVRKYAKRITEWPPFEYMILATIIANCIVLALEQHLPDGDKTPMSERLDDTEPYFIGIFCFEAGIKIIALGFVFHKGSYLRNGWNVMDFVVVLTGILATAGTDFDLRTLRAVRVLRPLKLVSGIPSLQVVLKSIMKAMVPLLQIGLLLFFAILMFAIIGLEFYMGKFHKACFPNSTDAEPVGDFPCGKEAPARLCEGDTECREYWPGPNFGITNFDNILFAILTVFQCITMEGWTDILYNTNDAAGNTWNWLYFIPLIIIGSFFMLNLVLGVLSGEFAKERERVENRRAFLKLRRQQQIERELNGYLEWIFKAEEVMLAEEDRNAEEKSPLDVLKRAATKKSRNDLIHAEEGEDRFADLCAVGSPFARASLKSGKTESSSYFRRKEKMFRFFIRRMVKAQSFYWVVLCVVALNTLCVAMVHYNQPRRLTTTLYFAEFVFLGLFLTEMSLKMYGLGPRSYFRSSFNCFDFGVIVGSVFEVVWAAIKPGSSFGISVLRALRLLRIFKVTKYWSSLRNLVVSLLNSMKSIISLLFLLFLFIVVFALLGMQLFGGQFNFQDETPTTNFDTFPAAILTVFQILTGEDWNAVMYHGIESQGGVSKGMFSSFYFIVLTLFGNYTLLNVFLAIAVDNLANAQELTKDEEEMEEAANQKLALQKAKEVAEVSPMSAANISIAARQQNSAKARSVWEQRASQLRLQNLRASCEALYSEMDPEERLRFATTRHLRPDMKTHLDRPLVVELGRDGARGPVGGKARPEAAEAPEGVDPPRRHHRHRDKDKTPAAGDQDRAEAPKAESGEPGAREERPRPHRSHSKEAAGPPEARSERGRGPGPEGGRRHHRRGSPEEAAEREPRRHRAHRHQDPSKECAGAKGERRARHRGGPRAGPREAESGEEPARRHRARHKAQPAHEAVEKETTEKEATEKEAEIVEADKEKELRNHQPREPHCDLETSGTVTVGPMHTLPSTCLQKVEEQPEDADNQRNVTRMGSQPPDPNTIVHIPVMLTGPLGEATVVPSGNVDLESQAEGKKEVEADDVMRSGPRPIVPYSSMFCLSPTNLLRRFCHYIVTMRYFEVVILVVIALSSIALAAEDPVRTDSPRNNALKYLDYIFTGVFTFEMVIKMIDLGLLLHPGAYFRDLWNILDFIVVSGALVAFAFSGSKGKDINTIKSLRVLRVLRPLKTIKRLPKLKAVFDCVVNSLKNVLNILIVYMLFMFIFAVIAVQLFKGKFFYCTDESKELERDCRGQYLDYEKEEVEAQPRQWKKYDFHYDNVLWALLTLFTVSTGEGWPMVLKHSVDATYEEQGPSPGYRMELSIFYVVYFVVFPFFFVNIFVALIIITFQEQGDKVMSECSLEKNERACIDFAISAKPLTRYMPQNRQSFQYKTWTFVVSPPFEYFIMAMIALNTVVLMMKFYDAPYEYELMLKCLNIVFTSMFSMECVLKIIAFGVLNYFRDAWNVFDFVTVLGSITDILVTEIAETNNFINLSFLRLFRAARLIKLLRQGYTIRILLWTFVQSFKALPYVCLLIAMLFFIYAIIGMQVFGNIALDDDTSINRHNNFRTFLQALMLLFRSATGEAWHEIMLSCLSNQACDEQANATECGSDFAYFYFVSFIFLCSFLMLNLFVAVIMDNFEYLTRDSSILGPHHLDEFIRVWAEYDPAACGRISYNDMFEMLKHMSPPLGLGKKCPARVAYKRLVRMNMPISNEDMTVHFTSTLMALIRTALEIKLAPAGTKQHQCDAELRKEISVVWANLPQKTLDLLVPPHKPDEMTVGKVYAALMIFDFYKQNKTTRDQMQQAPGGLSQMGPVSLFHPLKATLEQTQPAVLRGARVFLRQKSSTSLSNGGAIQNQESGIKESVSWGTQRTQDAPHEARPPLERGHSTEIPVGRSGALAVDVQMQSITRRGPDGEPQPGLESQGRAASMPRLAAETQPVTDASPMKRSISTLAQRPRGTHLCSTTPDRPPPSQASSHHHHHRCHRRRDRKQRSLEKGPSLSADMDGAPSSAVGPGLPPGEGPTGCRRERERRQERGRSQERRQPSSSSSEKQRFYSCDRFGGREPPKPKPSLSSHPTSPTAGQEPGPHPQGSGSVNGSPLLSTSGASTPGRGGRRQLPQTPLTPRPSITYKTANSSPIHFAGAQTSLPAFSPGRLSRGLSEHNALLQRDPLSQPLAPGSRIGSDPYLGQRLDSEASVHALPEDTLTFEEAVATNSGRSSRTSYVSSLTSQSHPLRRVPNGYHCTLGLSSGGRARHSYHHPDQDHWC
T1 sequence (P54284 whole entry partner): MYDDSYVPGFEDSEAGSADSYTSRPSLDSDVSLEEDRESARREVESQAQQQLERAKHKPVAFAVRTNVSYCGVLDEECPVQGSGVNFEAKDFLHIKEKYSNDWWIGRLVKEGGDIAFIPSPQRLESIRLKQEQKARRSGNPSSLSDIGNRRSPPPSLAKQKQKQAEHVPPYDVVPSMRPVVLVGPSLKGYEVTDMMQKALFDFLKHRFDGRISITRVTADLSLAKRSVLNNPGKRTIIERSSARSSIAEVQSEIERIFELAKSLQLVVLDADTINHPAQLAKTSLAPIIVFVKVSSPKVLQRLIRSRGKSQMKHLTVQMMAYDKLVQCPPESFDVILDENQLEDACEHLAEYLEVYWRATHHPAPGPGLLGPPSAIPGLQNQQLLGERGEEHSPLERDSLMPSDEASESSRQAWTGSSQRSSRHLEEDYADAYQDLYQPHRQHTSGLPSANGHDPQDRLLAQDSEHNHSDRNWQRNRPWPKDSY
T1 sequence (P54289 25-956 partner limits assumed): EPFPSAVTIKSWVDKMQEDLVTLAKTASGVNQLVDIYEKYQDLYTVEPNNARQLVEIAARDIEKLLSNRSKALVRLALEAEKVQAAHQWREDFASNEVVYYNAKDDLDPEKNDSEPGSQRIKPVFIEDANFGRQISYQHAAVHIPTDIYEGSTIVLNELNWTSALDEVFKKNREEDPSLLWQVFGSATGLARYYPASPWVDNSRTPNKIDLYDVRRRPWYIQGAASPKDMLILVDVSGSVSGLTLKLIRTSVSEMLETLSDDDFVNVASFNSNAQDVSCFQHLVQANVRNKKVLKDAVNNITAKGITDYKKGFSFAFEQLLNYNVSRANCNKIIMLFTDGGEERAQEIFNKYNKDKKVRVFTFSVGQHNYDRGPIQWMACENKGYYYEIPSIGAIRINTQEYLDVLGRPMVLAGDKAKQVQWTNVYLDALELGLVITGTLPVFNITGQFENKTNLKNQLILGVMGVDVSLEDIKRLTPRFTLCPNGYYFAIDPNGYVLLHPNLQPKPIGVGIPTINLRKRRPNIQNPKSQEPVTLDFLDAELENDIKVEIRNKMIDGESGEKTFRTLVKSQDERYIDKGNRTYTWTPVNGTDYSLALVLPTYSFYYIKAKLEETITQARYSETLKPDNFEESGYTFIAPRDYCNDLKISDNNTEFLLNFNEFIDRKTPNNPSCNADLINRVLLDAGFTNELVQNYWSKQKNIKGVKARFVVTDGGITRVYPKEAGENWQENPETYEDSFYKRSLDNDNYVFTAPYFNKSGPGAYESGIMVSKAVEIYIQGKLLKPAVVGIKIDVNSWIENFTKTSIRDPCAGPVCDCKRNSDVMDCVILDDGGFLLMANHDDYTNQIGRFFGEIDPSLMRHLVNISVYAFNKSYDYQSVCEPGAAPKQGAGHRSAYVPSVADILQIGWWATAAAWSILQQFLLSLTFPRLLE
T1 sequence (P54289 957-1103 partner limits assumed): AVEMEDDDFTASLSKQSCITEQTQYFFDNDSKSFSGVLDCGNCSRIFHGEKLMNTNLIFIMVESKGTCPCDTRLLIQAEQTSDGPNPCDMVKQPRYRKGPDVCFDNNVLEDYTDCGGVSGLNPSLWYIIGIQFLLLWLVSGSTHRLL
T2 sequence (Q00975 whole entry): as the sequence (Q00975 whole entry) above
T2 sequence (P54284 whole entry partner): as the sequence (P54284 whole entry partner) above
T2 sequence (P54289 25-956 partner limits assumed): as the sequence (P54289 25-956 partner limits assumed) above
T2 sequence (P54289 957-1103 partner limits assumed): as the sequence (P54289 957-1103 partner limits assumed) above

In the case of `COc1cc(Cl)ccc1-n1nc2c(c1-c1ccc(Cl)cc1)CN(S(=O)(=O)N(C)C)C2` [Cpd 65, 2-(4-Chloro-2-methoxyphenyl)-3-(4-chlorophenyl)-N,N-dimethyl-2,6-dihydropyrrolo[3,4-c]pyrazole-5(4H)-sulfonamide], at N-type calcium channel (setting [2]), the inhibition at 0.1 µM worked out at 1%. On N-type calcium channel (setting [3]), the inhibition at 0.1 µM was -8%. Further, in assay [1], the inhibition at 0.33 µM is 74% and the IC50 was determined as 150 nM.
Regarding `COc1cc(Cl)ccc1-n1nc2c(c1-c1ccc(Cl)cc1)CN(S(=O)(=O)C(C)C)C2` [Cpd 64, 2-(4-Chloro-2-methoxyphenyl)-3-(4-chlorophenyl)-5-[(1-methylethyl)sulfonyl]-2,4,5,6-tetrahydropyrrolo[3,4-c]pyrazole], on N-type calcium channel (setting [2]), the inhibition at 0.1 µM is 24%. Also, the inhibition at 0.1 µM at N-type calcium channel (setting [3]) is 12%. Further, in assay [1], the inhibition at 0.33 µM stood at 86% and the IC50 turned out to be 33 nM.
On to `COc1ccccc1-n1nc2c(c1-c1ccc(Cl)cc1)CN(S(=O)(=O)N1CCCC1)C2` [Cpd 60, 3-(4-Chlorophenyl)-2-(2-methoxyphenyl)-5-(pyrrolidin-1-ylsulfonyl)-2,4,5,6-tetrahydropyrrolo[3,4-c]pyrazole], for which the inhibition at 0.1 µM on N-type calcium channel (setting [2]) was determined as 44%; on N-type calcium channel (setting [3]), 29%. Further, the IC50 in assay [1] came out at 2 nM.
With `COc1ccccc1-n1nc2c(c1-c1ccc(Cl)cc1)CN(C(=O)OC(C)(C)C)C2` [Cpd 28, tert-Butyl 3-(4-chlorophenyl)-2-(2-methoxyphenyl)-2,6-dihydropyrrolo[3,4-c]pyrazole-5(4H)-carboxylate], the inhibition at 1 µM on N-type calcium channel (read-out: QPatch at High Frequency % Inhibition) stood at 52%; on N-type calcium channel (read-out: QPatch at Low Frequency % Inhibition), 25%. Besides, the IC50 in assay [1] came out at 73 nM.
Take `CC(C)CS(=O)(=O)N1Cc2nn(-c3cccc4c3OCO4)c(-c3ccc(Cl)cc3)c2C1` [Cpd 82, 2-(1,3-Benzodioxol-4-yl)-3-(4-chlorophenyl)-5-[(2-methylpropyl)sulfonyl]-2,4,5,6-tetrahydropyrrolo[3,4-c]pyrazole]: the inhibition at 0.1 µM came out at 15% on N-type calcium channel (setting [2]) and 4% on N-type calcium channel (setting [3]). Further, in assay [1], the inhibition at 0.33 µM is 87%. Also, the IC50 in assay [1] is 28 nM.
With `CC(C)(C)OC(=O)NCC(=O)N1Cc2nn(-c3ccccc3OC(F)(F)F)c(-c3ccc(Cl)cc3)c2C1` [Cpd 22, tert-Butyl{2-[3-(4-chlorophenyl)-2-[2-(trifluoromethoxy)phenyl]-2,6-dihydropyrrolo[3,4-c]pyrazol-5(4H)-yl]-2-oxoethyl}carbamate], the values for the inhibition at 1 µM at N-type calcium channel (setting [4]) and on N-type calcium channel (setting [5]) were 28% and 13%, respectively. Also, in assay [1], the IC50 was 240 nM.
Consider `COc1ccccc1-n1nc2c(c1-c1ccc(Cl)cc1)CN(S(=O)(=O)C1CCCC1)C2` [Cpd 40, 3-(4-Chlorophenyl)-5-(cyclopentylsulfonyl)-2-(2-methoxyphenyl)-2,4,5,6-tetrahydropyrrolo[3,4-c]pyrazole], for which the figures for the inhibition at 0.25 µM at N-type calcium channel (setting [2]) and on N-type calcium channel (setting [3]) were 69% and 57%, respectively. The IC50 in assay [1] was found to be 12 nM.
As to `CCc1ccccc1-n1nc2c(c1-c1ccc(Cl)cc1)CN(C(=O)c1ccncc1)C2` [Cpd 5, 3-(4-Chlorophenyl)-2-(2-ethylphenyl)-5-(pyridin-4-ylcarbonyl)-2,4,5,6-tetrahydropyrrolo[3,4-c]pyrazole], the inhibition at 0.25 µM was determined as 12% at N-type calcium channel (setting [2]) and 0% at N-type calcium channel (setting [3]). The inhibition at 1 µM on N-type calcium channel (setting [4]) turned out to be 37%; on N-type calcium channel (setting [5]), 11%. In assay [1], the IC50 is 200 nM.
Take `CCOc1ccccc1-n1nc2c(c1-c1ccc(Cl)cc1)CN(S(C)(=O)=O)C2` [Cpd 49, 3-(4-Chlorophenyl)-2-(2-ethoxyphenyl)-5-(methylsulfonyl)-2,4,5,6-tetrahydropyrrolo[3,4-c]pyrazole]: the values for the inhibition at 0.1 µM at N-type calcium channel (setting [2]) and on N-type calcium channel (setting [3]) were 22% and 18%, respectively. Also, in assay [1], the IC50 was 2 nM.
On to `COc1ccccc1-n1nc2c(c1-c1ccc(Cl)cc1)CN(S(=O)(=O)N(C)C)C2` [Cpd 33, 3-(4-Chlorophenyl)-2-(2-methoxyphenyl)-N,N-dimethyl-2,6-dihydropyrrolo[3,4-c]pyrazole-5(4H)-sulfonamide], for which the inhibition at 1 µM on N-type calcium channel (setting [4]) was 78%; at N-type calcium channel (setting [5]), 74%. For the same compound, in assay [1], the IC50 amounted to 9 nM.
As to `FC(F)(F)Oc1ccccc1-n1nc2c(c1-c1ccc(Cl)cc1)CN(c1ccc3nc(Cl)ccc3c1)C2` [Cpd 27, 2-Chloro-6-[3-(4-chlorophenyl)-2-[2-(trifluoromethoxy)phenyl]-2,6-dihydropyrrolo[3,4-c]pyrazol-5(4H)-yl]quinoline], the inhibition at 1 µM at N-type calcium channel (setting [5]) is -1%. In addition, in assay [1], the IC50 was determined as 93 nM.
`CCOc1ccccc1-n1nc2c(c1-c1ccc(Cl)cc1)CN(S(=O)(=O)C1CCCC1)C2` [Cpd 51, 3-(4-Chlorophenyl)-5-(cyclopentylsulfonyl)-2-(2-ethoxyphenyl)-2,4,5,6-tetrahydropyrrolo[3,4-c]pyrazole]: the inhibition at 0.1 µM stood at 47% at N-type calcium channel (setting [2]) and 37% at N-type calcium channel (setting [3]). In assay [1], the IC50 was 5 nM.
`COc1ccccc1-n1nc2c(c1-c1ccc(Cl)nc1)CN(S(=O)(=O)C(C)C)C2` [Cpd 92, 3-(6-Chloropyridin-3-yl)-2-(2-methoxyphenyl)-5-[(1-methylethyl)sulfonyl]-2,4,5,6-tetrahydropyrrolo[3,4-c]pyrazole]: on N-type calcium channel (setting [2]), the inhibition at 0.1 µM stood at 10%. The inhibition at 0.1 µM at N-type calcium channel (setting [3]) was 14%. In assay [1], the inhibition at 0.33 µM is 86% and the IC50 stood at 16 nM.
For the compound `CC(C)S(=O)(=O)N1Cc2nn(-c3ccccc3OC(F)(F)F)c(-c3ccc(Cl)cc3)c2C1` [Cpd 35, 3-(4-Chlorophenyl)-5-[(1-methylethyl)sulfonyl]-2-[2-(trifluoromethoxy)phenyl]-2,4,5,6-tetrahydropyrrolo[3,4-c]pyrazole], the inhibition at 0.25 µM was determined as 42% on N-type calcium channel (setting [2]) and 22% on N-type calcium channel (setting [3]). The IC50 in assay [1] was 27 nM.
In the case of `COC(=O)C1CCN(S(=O)(=O)N2Cc3nn(-c4ccccc4OC)c(-c4ccc(Cl)cc4)c3C2)CC1` [Cpd 58, Methyl 1-{[3-(4-chlorophenyl)-2-(2-methoxyphenyl)-2,6-dihydropyrrolo[3,4-c]pyrazol-5(4H)-yl]sulfonyl}piperidine-4-carboxylate], the inhibition at 0.1 µM was found to be 52% at N-type calcium channel (setting [2]) and 53% at N-type calcium channel (setting [3]). Further, in assay [1], the IC50 was 5 nM.
With `CC(C)S(=O)(=O)N1Cc2nn(-c3cccc4c3OCC4)c(-c3ccc(Cl)cc3)c2C1` [Cpd 84, 3-(4-Chlorophenyl)-2-(2,3-dihydro-1-benzofuran-7-yl)-5-[(1-methylethyl)sulfonyl]-2,4,5,6-tetrahydropyrrolo[3,4-c]pyrazole], the inhibition at 0.1 µM on N-type calcium channel (setting [2]) is 7%; at N-type calcium channel (setting [3]), -3%. Also, in assay [1], the inhibition at 0.33 µM came to 94%. Besides, the IC50 in assay [1] was determined as 10 nM.
